Measured values published in patent US7579152B2, “SENP1 as a marker of cancer development and target for cancer therapy” (Board of Regents, the University of Texas System, priority 2004, dated 2009).

Experiments:
[1] = tested on: SENP1; test: SENP1 mRNA levels by quantitative real-time PCR in PC-3 cells after androgen/cytokine treatment; format: cell-based; conditions: 24 hr
Procedure: (§1) LNCaP, PC-3, and DU145 cells were maintained in RPMI 1640 media containing 10% fetal bovine serum and 1% penicillin/streptomycin. The RWPE2 were maintained in Keratinocyte-Serum Free medium supplemented with 5 ng/ml human recombinant EGF and 0.05 mg/ml bovine pituitary extract. For hormone/cytokine treatment, the maintenance media was replaced with phenol red-free RPMI 1640 media containing 10% charcoal-stripped bovine serum and 1% penicillin/streptomycin.
(§2) Cells (LNCaP and/or PC-3) were prepared for RNA isolation using the RNA-Bee Reagent (Tel-Test Inc, Friendswood, Tex.) according to manufacture's instructions with stock samples diluted to the appropriate concentrations with the DEPC-treated water.
(§3) The TaqMan Master Mix Reagents (Applied Biosystems, Branchburg, N.J.) were utilized for the quantitative real-time PCR (QRT-PCR) reaction. Primers for either SENP1 ([…]; forward: SEQ. ID. NO. 5: 5′-TTGGCCAGAGTGCAAATGG-3′ and reverse: SEQ. ID. NO. 6 5′-[…]-3′) or the housekeeping 18S rRNA were utilized. SENP1 RNA levels were calculated using the TaqMan ABI PRISM 7900 Sequence Detector System (PE Applied Biosystems).

[2] = tested on: SENP1; test: SENP1 mRNA levels by quantitative real-time PCR in LNCaP cells after androgen/cytokine treatment; format: cell-based, human; conditions: for SENP1 levels on cytokine treatment: 25 ng/mL, 24 or 48 hr; for Increase in SENP1 levels / SENP1 expression enhanced (mRNA, QRT-PCR): R1881 20 nM; for Increase in SENP1 levels: IL-6 25 ng/mL, or both
Procedure: as §1, §2, §3

[3] = tested on: PSA; test: PSA ELISA assay, secreted PSA of LNCaP cells; format: cell-based, human; conditions: for Increase in PSA levels as compared to control: LNCaP, R1881 20 nM, IL-6 25 ng/mL, or both, 24 hr
Procedure: as §1
(§4) PC-3 and LNCaP cells were grown in 24-well plates. Cells were transfected with the oligos (40 pmol/well) or siRNA plasmid (200 ng) for one (for PC-3) or three times within 12 hour intervals (for LNcaP) using lipfectamine 2000 (Invitrogen). PSA ELISA or Luciferase assays were used for analysis.
For assessment of PSA, the PSA ELISA assay kit was purchased from MP Biomedicals (Orangeburg, N.Y.) and performed according to manufacturer's instruction. Using a microtiter plate reader, the ng/mL concentration of the cell samples was calculated from the standard curve.

[4] = tested on: AR; test: ARE-luciferase reporter assay of AR-dependent transcription with co-transfected SENP1; format: cell-based; conditions: PC-3 cells, in the presence of bicalutamide
Procedure: as §4
Luciferase reporter gene assays were used to examine whether SENP1 could affect AR-dependent transcription. […] This effect was dependent on the presence of AR ligand, R1881. […] Even at very low levels of cotransfected DNA, SENP1 induced AR transactivation. […] As the antagonists of androgen can also bind to the AR, the inventors tested whether SENP1 could act on antagonist-bound AR. […] SENP1 and SENP1 mutant were expressed at similar levels (FIG. 9E) and SENP1 and SENP2 were also expressed similarly (FIG. 9F).

[5] = tested on: cyclin D1 promoter; test: Cyclin D1 promoter CD1 (-1745/+134) luciferase reporter assay in PC-3 cells; format: cell-based; conditions: TSA for 12 hrs at 24 hr after transfection
Procedure: At 24 hr after transfection, cells were treated different dosage TSA as indicated for 12 hrs and then luciferase activity were determined. All luciferase activity was normalized to individually determined β-gal activity. […] After 48 hr of transfection, the Luciferase activity was measured. All luciferase activity was normalized to individually determined β-gal activity. […] All luciferase activity was normalized to individually determined β-gal activity.
EGFP-SENP1 and EGFP-SENP1mutant (C603A) were prepared by standard cloning and PCR based mutagenesis. CD1 (−1745/+134), CD1 (−963/+134), CD1 (−66/+134), and, CD1 (−66/+134) mutant-driven luciferase plasmids were prepared by PCR cloning strategy (Albanese et al., 1995; Tetsu et al., 1999). […]
To further confirm the role of SENP1 in cyclin D1 transcription, we performed a cyclin D1 promoter-driven luciferase reporter assay (FIG. 16A) as described by Cheng et al, 2004. CD1 (−1745/+134), which corresponded to the original fragment of cyclin D1 5′ sequence cloned from the PRAD1 breakpoint, was transfected into PC-3 cells and its response to SENP1 was measured.

In the case of “IL-6: cytokine that promotes activation of AR-dependent transcription via MAPK and JAK/STAT pathways”, the “SENP1 levels on cytokine treatment” value ([1]; IL-6 25 ng/mL) is reported as “unchanged”, the “SENP1 levels on cytokine treatment” value [2] is reported as “enhanced” and the “Increase in SENP1 levels” value ([2]; 24 hr) is reported as ~5 fold. The “Increase in PSA levels as compared to control” value [3] was 2.2 fold.

For `C[C@]1(O)CC[C@H]2[C@@H]3CCC4=CC(=O)CCC4=C3C=C[C@@]21C` [R1881], the “SENP1 expression on R1881 treatment” value ([1]; R1881 30 nM) was “unaltered”, the “SENP1 levels with increasing R1881 concentration” value ([2]; 24 hr) was “increasing R1881 concentration elevates SENP1 levels” and the “SENP1 expression enhanced (mRNA, QRT-PCR)” value ([2]; 24 hr) was 5 fold. For the same compound, the “SENP1 expression enhanced (mRNA, QRT-PCR)” value ([2]; 48 hr) was 7 fold, the “Increase in SENP1 levels” value ([2]; 24 hr) was ~5 fold and the “Concentration of secreted PSA protein in the cultural medium” value ([3]; LNCaP cells, R1881) was “increased”. The “Increase in PSA levels as compared to control” value [3] was 5.6 fold.

For `CC(O)(CS(=O)(=O)c1ccc(F)cc1)C(=O)Nc1ccc(C#N)c(C(F)(F)F)c1` (centres unmarked) [bicalutamide], the “Effect of SENP1 on AR-dependent transcription with antagonist-bound AR” value [4] was “no effect”.

In the case of `CC(/C=C/C(=O)NO)=C\[C@@H](C)C(=O)c1ccc(N(C)C)cc1` [TSA], the “SENP1 induction of cyclin D1 promoter activity” value [5] is reported as “decreased by TSA in a dose-dependent manner”.

With TNF-α the “SENP1 levels on cytokine treatment” value [2] was “not”.
